According to PubChem BioAssay AID743123 (Broad Institute, 2013):
“And” between values parts separate entries of the source, which are not always exact repeats. Equal values may be shown once. Results filed as inconclusive are left out. The source made the active and inactive calls.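 Rule for the calls: active = inhibition with a half-effect concentration no higher than twice the top valid dose tested; inconclusive = flat fit inhibiting 30 to 70%, or a poor fit; inactive = effect in the wrong direction, plus the rest.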

system: C. neoformans, alamar blue, sorbitol counter-screen, 24 h; assay: C. neoformans growth inhibition with sorbitol, dose response, counter-screen for C. neoformans cell wall antifungals, alamar blue, sorbitol added, dry powder (AID 743123); details: not given

Q: For `Fc1cccc2c1[nH]c(=S)n2CCOc1ccccc1`, which AC50 is on record?
A: 31.9 µM

Q: With `COC(=O)C1=C(C)N(Cc2ccc(F)cc2)C(=S)NC1c1cccc(F)c1` (stereo not given) as the molecule, how does the AC50 read?
A: 24.2 µM

Q: With `CCOc1ccc(OCCn2c(=S)[nH]c3ccccc32)cc1` as the molecule, how does the AC50 read?
A: 24.1 µM

Q: With `COC(=O)C1=C(C)N(Cc2ccc(Br)cc2)C(=S)NC1c1ccc(F)cc1` (stereo not given) as the molecule, how does the AC50 read?
A: 5.99 µM

Q: Which AC50 does the source give for `CCOC(=O)c1c(NC(=O)CNCCN(C)C)sc(C)c1-c1ccccc1` here?
A: 1.09 µM

Q: Which AC50 does the source give for `Cc1ccc(C(C)C)c(OCCn2c(=S)[nH]c3ccccc32)c1` here?
A: 10.1 µM

Q: With `Cc1ccc2c(c1)[nH]c(=S)n2CCOc1ccccc1` as the molecule, how does the AC50 read?
A: 27.1 µM

Q: With `Fc1ccccc1OCCn1c(=S)[nH]c2ccccc21` as the molecule, how does the AC50 read?
A: 36.2 µM

Q: Which AC50 does the source give for `Cc1ccccc1OCCn1c(=S)[nH]c2ccccc21` here?
A: 9.99 µM

Q: With `Cc1ccc(OCCn2c(SCCO)nc3ccccc32)c(C(C)C)c1` as the molecule, how does the AC50 read?
A: 7.62 µM

Q: Which AC50 does the source give for `Cc1ccc(OCCn2c(=S)[nH]c3ccccc32)c(C(C)C)c1` here?
A: 8.54 µM and 9.18 µM

Q: For `COC(=O)C1=C(C)N(Cc2ccc(Cl)cc2)C(=S)NC1c1ccc(Br)cc1` (stereo not given), which AC50 is on record?
A: 3.11 µM

Q: With `Cc1ccc(OCCn2c(=S)[nH]c3ccccc32)cc1` as the molecule, how does the AC50 read?
A: 10.9 µM

Q: Which AC50 does the source give for `CCOC(=O)c1c(-c2ccc(C(C)(C)C)cc2)csc1NC(=O)CN1CCN(C)CC1` here?
A: 13.7 µM

Q: Which AC50 does the source give for `CCOC(=O)c1c(-c2ccc(OC)cc2)csc1NC(=O)CN(C)CC(=O)N(C)C` here?
A: 13.9 µM

Q: For `CCOC(=O)c1c(NC(=O)CN2CCN(C)CC2)sc(C)c1-c1ccc(C)cc1`, which AC50 is on record?
A: 16.9 µM

Q: For `S=c1[nH]c2ccccc2n1CCOc1ccccc1`, which AC50 is on record?
A: 28.5 µM

Q: With `S=c1[nH]c2ccccc2n1CCOc1ccc(Cl)cc1` as the molecule, how does the AC50 read?
A: 14.7 µM

Q: Which AC50 does the source give for `CCOC(=O)c1c(-c2ccc(F)cc2)csc1NC(=O)CN1CCN(CC)CC1` here?
A: 36.1 µM

Q: With `Cc1ccc(OCCn2cnc3ccccc32)cc1` as the molecule, how does the AC50 read?
A: 7.76 µM

Q: For `S=c1[nH]c2cccc(Cl)c2n1CCOc1ccccc1`, which AC50 is on record?
A: 11.6 µM

Q: Which AC50 does the source give for `COC(=O)C1=C(C)N(Cc2ccccc2)C(=S)NC1c1ccc(Br)cc1` (stereo not given) here?
A: 9.1 µM

Q: Which AC50 does the source give for `COC(=O)C1=C(C)N(Cc2ccc(Br)cc2)C(=S)NC1c1ccc(OC)cc1` (stereo not given) here?
A: 23.9 µM

Q: For `CCOC(=O)c1c(-c2ccc(C(C)(C)C)cc2)csc1NC(=O)CN1CCN(CC)CC1`, which AC50 is on record?
A: 14.6 µM

Q: For `CCOC(=O)c1c(-c2ccc(-c3ccccc3)cc2)csc1NC(=O)CNCCN(C)C`, which AC50 is on record?
A: 19.9 µM

system: not listed separately; assay: as above; details: C. neoformans, alamar blue, sorbitol counter-screen, 24 h; at 35 µM (top of the series)

Q: With `O=c1[nH]c2ccccc2n1CCOc1ccccc1` as the molecule, how does the activity change, negative = inhibition read?
A: -36.6% (inactive)

Q: Which activity change, negative = inhibition does the source give for `Cc1ccc(OCCn2c(C)nc3ccccc32)cc1` here?
A: -59.3% (inactive)

Q: For `CCOC(=O)c1c(-c2ccc(F)cc2)csc1NC(=O)CN1CCN(C)CC1`, which activity change, negative = inhibition is on record?
A: -15.2% (inactive)

Q: For `c1ccc(OCCn2cnc3ccccc32)cc1`, which activity change, negative = inhibition is on record?
A: -38.4% (inactive)

Q: With `Cc1cccc(OCCn2c(=S)[nH]c3cc(C(F)(F)F)ccc32)c1` as the molecule, how does the activity change, negative = inhibition read?
A: -32% (inactive)
